Tested on: HO-1
Assay: HO-1/GAPDH mRNA in cortex after IV FeS + SnPP (biomarker for oxidative stress)
Type: in vivo
Conditions: combined with iron sucrose
Protocol: The SnPP composition of Example 1 and the Comparative Example (1 micromole) were combined with iron sucrose (1 mg) to assess biomarkers for oxidative stress.

In the case of `C=CC1=C(C)C2=Cc3c(C=C)c(C)c4[n]3[Sn]([Cl])([Cl])[n]3c(c(C)c(CCC(=O)O)c3=CC3=NC(=C4)C(C)=C3CCC(=O)O)=CC1=N2` [Example 1, Stannic protoporfin], the “HO-1 induction relative to the comparative example, in words” value is reported as “lower HO-1 induction”.

From US20250242033A1, “Novel Stannic Protoporfin Compositions, Methods of Making, and Uses Thereof” (Renibus Therapeutics, Inc., priority 2023, published 2025)
